Reference: patent publication US20250134946A1 (GEL4MED, INC., priority 2021, published 2025)
Non-standard residues stand in square brackets, D forms with d. No end group written: not given here.

How the values were obtained:
[1] = cited from earlier work
[2] = Net peptide charge and isoelectric point (FIGS. 9-10); assay type: physicochemical; conditions: pH 7
Source text: The peptide may be purified. For example, the peptide may be lyophilized. […] Other peptides are within the scope of the disclosure.
Exemplary peptides having a charge of +5 to +9 include […](d)[…], […](d)[…], and […](d)[…]. In other embodiments, the purified peptide may be substantially neutral. […] Net charge may be selected by peptide design. Design of electrostatic charge in the peptide hydrogel may allow control of charge interaction with cell membrane and proteins.

decorin = experiment: ChaseABC release from peptide hydrogels, bioactivity on decorin (FIGS. 6B, 15); conditions: pilot data, days 3 and 5
Source text: The protein was not degraded.
In addition to release and retention rates, in analogous experiments the released and retained ChaseABC enzyme will also be assayed for bioactivity. Activity will be assessed through the efficacy of the sample to digest the small proteoglycan decorin as described previously.
Importantly, the protein was not degraded.

Compound: NCCCC[C@H](N)C(=O)O [lysine]
- side chain pKa [1]: about 10.5

Compound: O=C(O)C(F)(F)F [trifluoroacetic acid]
- pKa [1]: about 0

Compound: VEVSVSVEV(d)PPTEVSVEVEV (VEVSVSVEV[dP]PTEVSVEVEV)
- net charge [2]: net negative charge

Compound: chondroitinase ABC [ChaseABC]
- bioactivity of released enzyme on decorin substrate (decorin): release of bioactive enzyme from the gel was demonstrated
